Source: PubChem BioAssay (NCI)
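In this assay, cells in 96-well plates receive the compound at five concentrations for 48 hours. Endpoints are linearly interpolated between the surrounding concentrations. TGI: total growth inhibition.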

Experiments:
Test in all cases: inhibition of tumour cell growth, NCI panel, 48 h
A549 NSCLC = system: A549 NSCLC
HOP-92 NSCLC = system: HOP-92 NSCLC
SF-295 CNS = system: SF-295 CNS
UO-31 renal = system: UO-31 renal
MDA-MB-435 = system: MDA-MB-435
SK-OV-3 ovarian = system: SK-OV-3 ovarian
COLO 205 colon = system: COLO 205 colon
NCI/ADR-RES ovarian = system: NCI/ADR-RES ovarian
CAKI-1 renal = system: CAKI-1 renal
SN12C renal = system: SN12C renal
NCI-H460 lung = system: NCI-H460 lung
NCI-H23 lung = system: NCI-H23 lung
HCC-2998 colon = system: HCC-2998 colon
SR leukemia = system: SR leukemia
MDA-MB-231 breast = system: MDA-MB-231 breast
T-47D breast = system: T-47D breast
IGROV1 ovarian = system: IGROV1 ovarian
MOLT-4 leukemia = system: MOLT-4 leukemia
SK-MEL-5 melanoma = system: SK-MEL-5 melanoma
OVCAR-4 ovarian = system: OVCAR-4 ovarian
OVCAR-8 ovarian = system: OVCAR-8 ovarian
HOP-62 NSCLC = system: HOP-62 NSCLC
SW-620 colon = system: SW-620 colon
RPMI-8226 leukemia = system: RPMI-8226 leukemia
MDA-N = system: MDA-N
CCRF-CEM leukemia = system: CCRF-CEM leukemia
U251 CNS = system: U251 CNS
ACHN renal = system: ACHN renal
PC-3 prostate = system: PC-3 prostate
M14 melanoma = system: M14 melanoma
TK-10 renal = system: TK-10 renal
MCF7 breast = system: MCF7 breast
SNB-19 CNS = system: SNB-19 CNS
K-562 leukemia = system: K-562 leukemia
HL-60(TB) leukemia = system: HL-60(TB) leukemia
SK-MEL-28 melanoma = system: SK-MEL-28 melanoma
HT29 colon = system: HT29 colon
NCI-H522 lung = system: NCI-H522 lung
OVCAR-3 ovarian = system: OVCAR-3 ovarian
SK-MEL-2 melanoma = system: SK-MEL-2 melanoma
OVCAR-5 ovarian = system: OVCAR-5 ovarian
UACC-257 melanoma = system: UACC-257 melanoma
LOX IMVI melanoma = system: LOX IMVI melanoma
HCT-15 colon = system: HCT-15 colon
HCT-116 colon = system: HCT-116 colon
NCI-H226 lung = system: NCI-H226 lung
A498 renal = system: A498 renal
HS 578T breast = system: HS 578T breast
SNB-75 CNS = system: SNB-75 CNS
DU-145 prostate = system: DU-145 prostate
UACC-62 melanoma = system: UACC-62 melanoma
786-0 renal = system: 786-0 renal
SF-539 CNS = system: SF-539 CNS
MALME-3M melanoma = system: MALME-3M melanoma
EKVX NSCLC = system: EKVX NSCLC
SF-268 CNS = system: SF-268 CNS
BT-549 breast = system: BT-549 breast
RXF 393 renal = system: RXF 393 renal
KM12 colon = system: KM12 colon

Structure (SMILES): C=C[C@@](C)(/C=C/c1ccc(O)cc1)CCC=C(C)C
- TGI (A549 NSCLC): 35.1 µM
- TGI (HOP-92 NSCLC): 32 µM
- TGI (SF-295 CNS): 34.4 µM
- TGI (UO-31 renal): 32.4 µM
- TGI (MDA-MB-435): 33.9 µM
- TGI (SK-OV-3 ovarian): 30 µM
- TGI (COLO 205 colon): 33.1 µM
- TGI (NCI/ADR-RES ovarian): 31 µM
- TGI (CAKI-1 renal): 32.6 µM
- TGI (SN12C renal): 35.3 µM
- TGI (NCI-H460 lung): 29.2 µM
- TGI (NCI-H23 lung): 30.4 µM
- TGI (HCC-2998 colon): 35.5 µM
- TGI (SR leukemia): 32.1 µM
- TGI (MDA-MB-231 breast): 35.8 µM
- TGI (T-47D breast): 28.7 µM
- TGI (IGROV1 ovarian): 30.5 µM
- TGI (MOLT-4 leukemia): 28 µM
- TGI (SK-MEL-5 melanoma): 30.7 µM
- TGI (OVCAR-4 ovarian): 28.6 µM
- TGI (OVCAR-8 ovarian): 35.2 µM
- TGI (HOP-62 NSCLC): 33.8 µM
- TGI (SW-620 colon): 34 µM
- TGI (RPMI-8226 leukemia): 32.3 µM
- TGI (MDA-N): 31 µM
- TGI (CCRF-CEM leukemia): 31 µM
- TGI (U251 CNS): 30.6 µM
- TGI (ACHN renal): 22.4 µM
- TGI (PC-3 prostate): 30.4 µM
- TGI (M14 melanoma): 35.3 µM
- TGI (TK-10 renal): 32.3 µM
- TGI (MCF7 breast): 35.2 µM
- TGI (SNB-19 CNS): 34.7 µM
- TGI (K-562 leukemia): 29.9 µM
- TGI (HL-60(TB) leukemia): 29.7 µM
- TGI (SK-MEL-28 melanoma): 35.7 µM
- TGI (HT29 colon): 32.8 µM
- TGI (NCI-H522 lung): 30.9 µM
- TGI (OVCAR-3 ovarian): 32.2 µM
- TGI (SK-MEL-2 melanoma): 37.3 µM
- TGI (OVCAR-5 ovarian): 33.5 µM
- TGI (UACC-257 melanoma): 31.9 µM
- TGI (LOX IMVI melanoma): 32.2 µM
- TGI (HCT-15 colon): 32.7 µM
- TGI (HCT-116 colon): 32.2 µM
- TGI (NCI-H226 lung): 35.4 µM
- TGI (A498 renal): 35.6 µM
- TGI (HS 578T breast): 46.9 µM
- TGI (SNB-75 CNS): 26.9 µM
- TGI (DU-145 prostate): 26.1 µM

Structure (SMILES): [N-]=[N+]=C(C(=O)C(=[N+]=[N-])C(=O)c1ccccc1)C(=O)c1ccccc1
- TGI (A549 NSCLC): > 100 µM
- TGI (SF-295 CNS): > 100 µM
- TGI (UACC-62 melanoma): > 100 µM
- TGI (UO-31 renal): > 100 µM
- TGI (MDA-MB-435): > 100 µM
- TGI (COLO 205 colon): > 100 µM
- TGI (NCI/ADR-RES ovarian): > 100 µM
- TGI (786-0 renal): > 100 µM
- TGI (SN12C renal): > 100 µM
- TGI (NCI-H460 lung): > 100 µM
- TGI (NCI-H23 lung): > 100 µM
- TGI (HCC-2998 colon): > 100 µM
- TGI (MDA-MB-231 breast): > 100 µM
- TGI (IGROV1 ovarian): > 100 µM
- TGI (SK-MEL-5 melanoma): > 100 µM
- TGI (OVCAR-8 ovarian): > 100 µM
- TGI (HOP-62 NSCLC): > 100 µM
- TGI (SW-620 colon): > 100 µM
- TGI (RPMI-8226 leukemia): > 100 µM
- TGI (MDA-N): > 100 µM
- TGI (ACHN renal): > 100 µM
- TGI (PC-3 prostate): > 100 µM
- TGI (SF-539 CNS): > 100 µM
- TGI (M14 melanoma): > 100 µM
- TGI (TK-10 renal): > 100 µM
- TGI (MALME-3M melanoma): > 100 µM
- TGI (MCF7 breast): > 100 µM
- TGI (EKVX NSCLC): > 100 µM
- TGI (SNB-19 CNS): > 100 µM
- TGI (K-562 leukemia): > 100 µM
- TGI (SF-268 CNS): > 100 µM
- TGI (HL-60(TB) leukemia): > 100 µM
- TGI (BT-549 breast): > 100 µM
- TGI (SK-MEL-28 melanoma): > 100 µM
- TGI (HT29 colon): > 100 µM
- TGI (NCI-H522 lung): > 100 µM
- TGI (OVCAR-3 ovarian): > 100 µM
- TGI (SK-MEL-2 melanoma): > 100 µM
- TGI (OVCAR-5 ovarian): > 100 µM
- TGI (UACC-257 melanoma): > 100 µM
- TGI (RXF 393 renal): > 100 µM
- TGI (LOX IMVI melanoma): > 100 µM
- TGI (KM12 colon): > 100 µM
- TGI (HCT-15 colon): > 100 µM
- TGI (HCT-116 colon): > 100 µM
- TGI (HS 578T breast): > 100 µM
- TGI (SNB-75 CNS): > 100 µM
- TGI (DU-145 prostate): > 100 µM
